Test results as given in paper PMC10022894, “Plant and prokaryotic TIR domains generate distinct cyclic ADPR NADase products” (Science Advances, 2023).

Assays:
Type in all cases: biochemical
HopAM1 = molecular target: T1, HopAM1 (Pseudomonas syringae group genomosp. 3, UniProt Q877R9); assay: in vitro NADase assay on bead-bound protein, LC-MS; details: […] NAD+, ~[…] C, […] h
T1 construct: gene hopAM1-1; TIR effector; N-terminal Strep II and C-terminal 6xHis tags (pET30a+), E. coli BL21(DE3)

AbTIR = molecular target: T2, AbTIR (Acinetobacter baumannii, UniProt A0A009IHW8); assay: in vitro NADase assay on bead-bound protein, LC-MS; details: […] NAD+, ~[…] C, […] h
T2 construct: gene J512_3302; core TIR domain, residues 157-292; N-terminal Strep II and C-terminal 6xHis tags (pET30a+), E. coli BL21(DE3); catalytic E208

ThsA = molecular target: T3, ThsA (Bacillus cereus, UniProt J8G6Z1); assay: in vitro NAD+ consumption; details: stimulated by NADase products of ThsB-Auto
T3 construct: SIR2-type NADase with C-terminal SLOG domain; in vitro preparation not described in main text

BdTIR = molecular target: T4, BdTIR (Brachypodium distachyon, UniProt I1GTC2); assay: in vitro NADase assay on bead-bound protein, LC-MS; details: […] NAD+, ~[…] C, […] h
T4 construct: gene BRADI_1g24377v3; TIR-only protein; N-terminal Strep II and C-terminal 6xHis tags (pET30a+), E. coli BL21(DE3); catalytic E127
T4 sequence (I1GTC2 1-224): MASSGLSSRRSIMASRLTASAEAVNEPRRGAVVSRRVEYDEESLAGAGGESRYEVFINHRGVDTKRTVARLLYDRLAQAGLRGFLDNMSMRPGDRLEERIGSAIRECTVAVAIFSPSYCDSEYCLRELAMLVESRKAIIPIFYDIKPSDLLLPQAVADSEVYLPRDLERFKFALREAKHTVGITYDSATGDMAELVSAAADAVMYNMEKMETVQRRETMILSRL

T3 sequence (J8G6Z1 whole entry, the tested form may be a part): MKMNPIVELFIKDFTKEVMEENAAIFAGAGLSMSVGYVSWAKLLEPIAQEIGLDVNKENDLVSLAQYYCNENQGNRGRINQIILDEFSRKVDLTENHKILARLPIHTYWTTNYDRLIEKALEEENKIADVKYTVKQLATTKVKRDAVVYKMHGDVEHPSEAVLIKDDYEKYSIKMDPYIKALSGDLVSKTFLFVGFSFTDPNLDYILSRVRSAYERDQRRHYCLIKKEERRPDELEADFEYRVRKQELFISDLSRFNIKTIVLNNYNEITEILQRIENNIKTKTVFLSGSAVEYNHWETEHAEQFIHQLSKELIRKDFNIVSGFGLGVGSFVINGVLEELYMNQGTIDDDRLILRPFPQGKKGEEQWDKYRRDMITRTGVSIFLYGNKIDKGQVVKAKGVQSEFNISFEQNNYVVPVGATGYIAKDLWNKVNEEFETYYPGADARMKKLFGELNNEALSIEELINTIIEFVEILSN
T1 sequence (Q877R9 whole entry): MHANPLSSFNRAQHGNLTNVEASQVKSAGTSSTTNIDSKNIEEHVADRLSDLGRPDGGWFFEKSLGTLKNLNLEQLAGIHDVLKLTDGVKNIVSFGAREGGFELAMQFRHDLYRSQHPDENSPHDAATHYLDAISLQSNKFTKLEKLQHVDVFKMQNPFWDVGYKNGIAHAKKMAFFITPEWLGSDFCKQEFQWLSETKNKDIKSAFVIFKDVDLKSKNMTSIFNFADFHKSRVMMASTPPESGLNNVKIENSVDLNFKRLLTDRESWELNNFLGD
T2 sequence (A0A009IHW8 134-269): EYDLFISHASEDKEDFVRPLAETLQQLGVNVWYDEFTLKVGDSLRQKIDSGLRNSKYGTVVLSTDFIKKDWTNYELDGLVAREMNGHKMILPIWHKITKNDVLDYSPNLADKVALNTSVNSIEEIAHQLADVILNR

NC(=O)c1ccc[n+]([C@@H]2O[C@H](COP(=O)(O)OP(=O)(O)OC[C@H]3O[C@@H](n4cnc5c(N)ncnc54)[C@H](O)[C@@H]3O)[C@@H](O)[C@H]2O)c1 [NAD^+]
in vitro NADase assay on bead-bound protein, LC-MS (HopAM1): we compared the in vitro NADase products of ThsB-Auto, BdTIR, AbTIR, and HopAM1 | in vitro NADase assay on bead-bound protein, LC-MS (AbTIR): we compared the in vitro NADase products of ThsB-Auto, BdTIR, AbTIR, and HopAM1 | in vitro NAD+ consumption (ThsA): NADase products of ThsB-Auto could stimulate NAD^+ consumption by ThsA in vitro | in vitro NADase assay on bead-bound protein, LC-MS (BdTIR): we compared the in vitro NADase products of ThsB-Auto, BdTIR, AbTIR, and HopAM1
